Measured values as given in patent US20060116423A1, “Methods and compositions for treatment of central nervous system injury with isothiocyanates” (priority 2004, published 2006).

How the values were obtained:
[1] = tested on: blood-brain barrier; test: Blood-brain barrier integrity by Evan's blue dye extravasation after cortical impact injury; assay type: in vivo, rat; settings: for blood-brain barrier permeability (Evans Blue extravasation): measured 24 h after TBI, vs vehicle
Experimental: Blood-brain barrier integrity was assessed using extravagation of Evan's blue (EB) dye. When injected through the jugular vein of normal animals, EB is not detected in the nervous tissue. However, if the blood-brain barrier is compromised, EB can be detected in nervous tissues. The amount of EB can be quantified by extracting the dye from the tissue followed by spectrophotometric analysis at 610 nm wavelength. One and one-half hours prior to the above time points, animals were anesthetized and injected with 3% EB in saline (4 ml/kg) through the jugular vein. Animals were transcardially perfused with phosphate-buffered saline (PBS) until the out-coming liquid was clear followed by 4% paraformaldehyde (400 ml). The brain was removed and 2 mm-thick sections were prepared and incubated with 3 ml of 99.5% formamide in a 60° C. water bath for 24 hr. At the end of the incubation, tissues were removed and the formamide solution was centrifuged in an Eppendorf centrifuge at 12,000 rpm for 20 min. The supernatant solution was collected and the optical density at 610 nm was measured to determine the relative amount of EB dye in each sample.

[2] = tested on: aquaporin-4 (AQP4)
Source text: (§1) This model utilizes a pneumatic piston to deform a controllable volume of exposed cortex over a range of impact velocities. All protocols were in compliance with NIH's Guide for the Care and Use of Laboratory Animals and approved by the Institutional Animal Care and Use Committee. A controlled cortical impact device was used to cause brain trauma as previously described^6,7,26. Rats were anesthetized using 5% isoflurane with a 1:1 N2O:O2 mixture. The animals were then maintained with a 2% isoflurane/2:1 N2O:O2 mixture, via a face mask. Animals were mounted in the injury device stereotaxic frame secured by ear bars and an incisor bar. The head was held in a horizontal plane with respect to the interaural line. A midline incision was made, the soft tissues reflected, and bilateral 6 mm craniectomies were made midway between the bregma and lambda with the medial edge of each craniectomy 1 mm lateral to midline. Rats received a single impact at 1.8 mm deformation with an impact velocity of 6 m/sec at an angle of 20° from the vertical plane. Core body temperature was maintained at 37-38° C. by use of a rectal thermometer coupled to a heating pad. Sham rats were anesthetized and received craniectomies but were not cortically impacted. After injury or sham operation, the scalp was sutured and the animal placed in an oxygenated chamber and monitored during recovery. All rats were allowed to completely recover from the anesthesia after the surgery in a warm chamber before being sent back to the home cages. The type of brain trauma employed in this study produces both motor and cognitive deficits similar to those seen in human patients^6.
(§2) Rats were killed and brains were removed quickly and dip-frozen in −80° C. isopentane for 20 sec.

[3] = tested on: endothelial barrier antigen (EBA); settings: 5 mg/kg and 20 mg/kg i.p. at 6 h after injury; samples at 24 h; cortices ipsilateral to injury; P<0.05 vs vehicle
Source text: as §1, §2

[4] = tested on: glial fibrilary acidic protein (GFAP); settings: 24 hr after injury; vehicle vs SUL-treated animals
Source text: as §1, §2

[5] = tested on: rat endothelial cell antigen (RECA); settings: 5 mg/kg and 20 mg/kg i.p. at 6 h after injury; samples at 24 h; cortices ipsilateral to injury; P<0.05 vs vehicle
Source text: as §1, §2

[6] = tested on: tight junction proteins (claudin-5, occludin, ZO-1); settings: administration six hours after injury; P<0.05 vs injury+vehicle
Source text: as §1, §2

[7] = tested on: von-Willebrand factor (vWF); settings: administration six hours after injury; vs injury+vehicle
Source text: as §1, §2

[8] = tested on: brain injured rats
Source text: as §1

[9] = tested on: brain swelling (edema); settings: P<0.05 vs vehicle
Source text: as §1

[10] = tested on: brain injured rats; settings: 5 mg/kg i.p. 6 hr post-injury, P<0.05 vs vehicle
Source text: as §1, with “All rats were allowed to completely recover from the anesthesia after the surgery in a warm chamber before being sent back to the home cages. The type of brain trauma employed in this study produces both motor and cognitive deficits similar to those seen in human patients^6.” left out

[11] = tested on: AQP4 mRNA; settings: 5 mg/kg i.p.; 24 hr post-administration; cortical tissue; vehicle 100.00±18.16%; mean±S.E.M., n=3; P<0.05
Experimental: Animals were killed and parietal cortical tissues were quickly dissected out and frozen in dry ice. The frozen tissue was homogenized in 1.5ml of TriZol (Invitrogen) per 100 mg tissue, followed by addition of chloroform (1:5) and incubation on ice for 20 min. The homogenate was centrifuged at 14,000×g for 30 min, and total RNA was precipitated by isopropanol. 1.0 jig total RNA was reverse transcribed for 2 hours at 37° C. in a 20μl mixture containing 50 mM Tris-HCl pH 8.3, 75 mM KCl, 3.0 mM MgCl2, 10 mM DTT, 2.5 μM random hexamer, 1.0 mM each dNTP, 20 U RNasin, and 200 U Superscript II reverse transcriptase. The level of expression of each target gene was quantified using a BioRad iCycler real-time PCR system (BioRad, Hercules, CA). Reactions were carried out in triplicate. Each 30 μl reaction mixture consisted of 1.5 μl of the cDNA and 18 mM Tris-HCl pH 8.3, 55 mM KCl, 2.0 mM MgCl2, 0.2 mM of each dNTP, 0.5μM of each primer, 10 nM fluorescein, 1:75,000 dilution of Sybr green I, and 2 U AmpliTaq DNA polymerase. […] The resultant data was analyzed using the iCycler iQ Real-Time Detection System software^33.
To assess the ability of SUL to induce AQP4 expression, rats were intraperitonealy injected with either 5 mg/kg SUL prepared in corn oil or equal volume of vehicle. […] AQP4 mRNA levels were evaluated using real-time PCR. […]

[12] = tested on: focal cerebral ischemia (CCA/MCA occlusion); settings: 5 mg/kg i.p. 15 minutes after onset of ischemia; 3 hours CCA/MCA occlusion; three days following ischemia; vehicle 153.87±11.01 mm^3; P<0.05
Experimental: Focal ischemia was induced by temporary left common carotid/middle cerebral artery (CCA/MCA) occlusion^1,41. Briefly, rats were anesthetized with chloral hydrate (0.45 g/kg IP). Core body temperature was maintained at 36.5±0.5° C. during ischemia The ipsilateral CCA was isolated and tagged through a ventral, cervical midline incision. A 0.005-inch-diameter stainless steel wire (Small Parts Inc) was placed underneath the left MCA rostral to the rhinal fissure, proximal to the major bifurcation of the MCA, and distal to the lenticulostriate arteries. The artery was then lifted, and the wire was rotated clockwise to ensure occlusion. The CCA was next occluded with an atraumatic aneurysm clip. Cerebral perfusion at the cortical surface, 3 mm distal to the locus of the MCA occlusion, was measured with a laser-Doppler flowmeter (LDF) (model BPM2, Vesamedic). […] After 180 minutes of MCA/CCA occlusion, reperfusion was established by reversing the occlusion procedure. […]
Morphometric determination of infarct volume was obtained with the help of a computer-based image analyzer operated by Brain software (Drexel University). […] The infarct volume (mm^3) was calculated from the difference between the volume of contralateral cortex and the volume of the TTC-stained (nonischemic) portion of ipsilateral cortex of each rat. […]

[13] = tested on: cortical cultures; settings: pretreatment prior to hydrogen peroxide or glutamate exposure; in vitro; cited from earlier work

In the case of `S=C=NCCc1ccccc1` [phenylethyl isothiocyanate], the “blood-brain barrier permeability (Evans Blue extravasation)” value (from here on “blood-brain barrier permeability”) ([1]; 4.6 mg/kg i.p. 6 hr after brain trauma) is reported as “decreased blood-brain barrier permeability”.

With `C=CCN=C=S` [allyl isothiocyanate] the “blood-brain barrier permeability” value ([1]; 2.8 mg/kg i.p. 6 hr after brain trauma) was “decreased blood-brain barrier permeability”.

With `C[S@@+]([O-])CCCCN=C=S` [sulforaphane] the “blood-brain barrier permeability” value ([1]; 5 mg/kg i.p. 6 hr after brain trauma) was “decreased blood-brain barrier permeability”, the “Evan's blue dye extravasation into brain tissue (OD at 610 nm)” value ([1]; 5 mg/kg i.p. at 6 h after TBI, 24 hr and 72 hr time points, ipsilateral side, P<0.05 vs vehicle) was “significantly attenuate dye extravasation” and the “extravasation of Evan's Blue dye” value ([1]; oral 60 mg/kg/day for one or four days, day one given 6 hr following brain injury, P<0.05 vs vehicle) was “effective in decreasing the extravasation of Evan's Blue dye”. The “AQP4 immuno-fluorescence intensity in the injury core” value ([2]; 5 mg/kg i.p. at 6 hr after injury, 24 hr after injury, mean±S.E.M., n=4, injury-vehicle 13.79±2.22%, P<0.05) was 35.25±3.13%, the “AQP4 levels (fluorescence intensity) in the penumbra region” value ([2]; post-injury administration, at both 24 hr and 3 days following injury, P<0.05 vs vehicle) was “significantly increased” and the “EBA staining, integrated fluorescent intensity” value [3] was “significantly improves”. For the same molecule, the “GFAP immunoreactivity in the penumbra region” value [4] was “lack of difference”, the “RECA staining, integrated fluorescent intensity” value [5] was “significantly improves” and the “tight junction protein levels (claudin-5, occludin, ZO-1 immunoreactivity)” value [6] was “significantly attenuated the loss”. The “vWF levels (immunoreactivity)” value [7] was “partially restored”, the “spatial learning and memory (latency to find the hidden platform)” value ([8]; 5 mg/kg 6 hr post-injury, days 14-18 post-injury, n=9, P<0.05 vs vehicle) was “improved spatial learning and memory” and the “working memory: latency to hidden platform, match trial vs location trial” value ([8]; 5mg/kg i.p. 6 hr post-injury, tested day 21 post-injury, n=8, P<0.05) was “find the hidden platform significantly faster during the match trial”. For the same molecule, the “difference in brain water content between injured and uninjured hemispheres” value ([9]; 5 mg/kg ip at 15 min and at 6 hr after injury, measured at 3 day following injury) was “significantly decreases the difference in brain water content”, the “brain water content (difference in percent water content between injured and uninjured hemispheres)” value ([9]; 5 mg/kg ip at 15 min and at 6 hr following injury, measured 24 hr following injury) was “decreases brain water content” and the “increase in brain water content (difference between injured and uninjured hemispheres)” value ([9]; delayed administration, 5 mg/kg ip at 6 hr after injury, measured at 3 days after injury) was “significantly reduces the increase in brain water content”. The “extinction of fear memory (freezing during extinction training)” value ([10]; extinction on day 23 post-injury, n=8) was “Extinction was more rapid”, the “memory for the extinction event (freezing to the tone)” value ([10]; tested 48 hr following extinction training, 3 tone presentations) was “reduced freezing to the tone” and the “AQP4 mRNA level” value [11] was 289.76±16.52%. For the same molecule, the total infarct volume [12] was 100.52±16.35 mm^3 and the “neuroprotection of cortical cultures” value [13] was “robust neuroprotection”.
